From patent publication US20240208965A1, “HETEROARYL ALKYLENE SUBSTITUTED 2-OXOQUINAZOLINE DERIVATIVES AS METHIONINE ADENOSYLTRANSFERASE 2A INHIBITORS” (IDEAYA BIOSCIENCES, INC., priority 2020, published 2024)

What follows are molecules tested against T1, Human MAT2A (Homo sapiens, UniProt P31153) (assay: Phosphate Sensor Fluorescence Assay (Biologic Example A)). Settings: MAT2A inhibition, Biological Example A procedure (Compounds 1.001-1.028); 500 uM L-methionine, 500 uM ATP.
T1 construct: Human MAT2A: Cepter, amino acids 1-395 Clone ID 334, lot 00023-148; purchased Cepter clone ID 334, lot 00023-148
Type: biochemical
Procedure: The ability of the compound of present disclosure to inhibit MAT2A enzyme was determined using a Phosphate Sensor Fluorescence Assay described below.
Biologic Example A. Phosphate Sensor Fluorescence Assay
MAT2A enzyme is incubated with a test compound in DMSO or DMSO and its substrates (L-methionine and ATP) in a microtiter plate. The enzymatic reaction is stopped by the addition of Working Phosphate Sensor Mixture. The plate is analyzed for fluorescence at 450 nm. The high control (DMSO with enzyme and its substrates) gives high fluorescence which represents no inhibition of enzymatic activity while the low control (DMSO with MAT2A substrates and no enzyme) gives low fluorescence which represents full inhibition of enzymatic activity.
• Human MAT2A: Cepter, amino acids 1-395 • Tris, pH 7.5: Invitrogen cat #15567-027 • KCl: Ambion cat #AM9640G • MgCl2: Ambion cat #AM9530G • Brij-35: Sigma cat B4184-10ML • DTT: Goldbio cat #DTT100 • BGG: Sigma cat #G5009-25G • PNP: Novus Biologicals cat #NBP1-50872 • 7-MEG: Cayman Chemical cat #15988 • L-Methionine: Alfa Aesar cat #J61904 • ATP: Alfa Aesar cat #J60336 • Phosphate Sensor: Thermo Fisher cat #PV4407 • EDTA: Life Tech cat #15575-038 • Assay plate: 384-well black polypropylene plate: Thomas Scientific cat #1149Q35
• Assay Buffer: 50 mM Tris, pH 7.5/50 mM KCl/10 mM MgCl2/0.01% Brij-35/1 mM DTT/0.1% BGG/40 nM PNP/6 uM 7-MEG • MAT2A: 10 nM for Cepter clone ID 329, lot 00023-123 before the addition of Working Phosphate Sensor Mixture • 5 nM for Cepter clone ID 334, lot 00023-148 before the addition of Working Phosphate Sensor Mixture • L-methionine: 500 uM before the addition of Working Phosphate Sensor Mixture • ATP: 500 uM before the addition of Working Phosphate Sensor Mixture
For the assay, a mixture of 1 mM L-methionine/1 mM ATP (2× final pre-stopped concentration) in assay buffer; MAT2A (2× final pre-stopped concentration) in Assay Buffer and Working Phosphate Sensor Mixture (1.5 uM Phosphate Sensor/30 mM EDTA in Assay Buffer, which is 3× final concentrations) were prepared. Test compounds or DMSO were added to the appropriate well suing D300e digital dispenser. 5 μl/well of Assay Buffer was added to the wells corresponding to the negative control and 5 μl/well of MAT2A was added to all the wells except for those corresponding to the negative control. After incubating the plate at room temperature for 15 minutes, 5 μl/well of the 1 mM L-methionine/1 mM ATP mixture was added to all wells. The plate was centrifuged at 1000 rpm for 1 minute and then incubated at room temperature for 1 hour. 5 μl of the Working Phosphate Sensor Mixture was added to all wells and the plate was centrifuged at 1000 rpm for 1 minute. The plate was read for fluorescence at 450 nm after exciting at 430 nm.
Percent inhibition was calculated in Chemical and Biological Information System (CBIS), (ChemInnovation Software Inc.). Curves were fitted by CBIS as % inhibition vs. log [compound concentration] using a 4-parameter inhibition model.
Fit=(A+((B−A)/(1+((C/x)^D))))
Compounds 1.001-1.028 were tested using the procedure described in Bioogical Example A, described above. Compounds 1.029-1.070 were tested using the procedure described in Biological Example B, described above.

T1 sequence (P31153 whole entry, the tested form may be a part): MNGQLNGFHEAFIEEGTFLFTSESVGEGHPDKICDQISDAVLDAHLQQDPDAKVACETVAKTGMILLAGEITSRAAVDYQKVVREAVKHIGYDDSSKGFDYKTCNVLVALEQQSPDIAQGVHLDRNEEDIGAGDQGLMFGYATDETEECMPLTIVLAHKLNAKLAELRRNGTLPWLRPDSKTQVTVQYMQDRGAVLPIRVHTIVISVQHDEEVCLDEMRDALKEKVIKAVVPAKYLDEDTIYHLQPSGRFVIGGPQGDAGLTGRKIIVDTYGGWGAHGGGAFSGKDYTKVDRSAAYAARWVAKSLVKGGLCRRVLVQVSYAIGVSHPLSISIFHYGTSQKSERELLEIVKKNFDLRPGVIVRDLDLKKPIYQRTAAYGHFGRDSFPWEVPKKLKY

Compound | IC50
CNc1nc(=O)n(Cc2c[nH]cn2)c2cc(C(F)(F)F)ccc12 [1.003, 1-((1H-imidazol-4-yl)methyl)-4-(methylamino)-7-(trifluoromethyl)quinazolin-2(1H)-one] | 10 to 200 nM
CNc1nc(=O)n(C(C)c2c[nH]cn2)c2cc(C(F)(F)F)ccc12 (racemic) [1.007, 1-(1-(1H-imidazol-4-yl)ethyl)-4-(methylamino)-7-(trifluoromethyl)quinazolin-2(1H)-one] | 10 to 200 nM
CO[C@@H]1CCN(c2nc(=O)n([C@@H](C)c3c[nH]cn3)c3cc(C(F)(F)F)ccc23)C1 (single isomer, unassigned) [1.026] | 200 to 500 nM
CO[C@H]1CCN(c2nc(=O)n([C@H](C)c3c[nH]cn3)c3cc(C(F)(F)F)ccc23)C1 (single isomer, unassigned) [1.021] | 200 to 500 nM
C[C@H](c1c[nH]cn1)n1c(=O)nc(N2CCCC2)c2ccc(C(F)(F)F)cc21 (single isomer, unassigned) [1.023] | 10 to 200 nM
C[C@H](c1c[nH]cn1)n1c(=O)nc(N2CCC2)c2ccc(C(F)(F)F)cc21 (single isomer, unassigned) [1.027] | 200 to 500 nM
